Like-named read-outs stand apart in the source and are kept apart here.
Experiments:
CYP2E1 [1] = biological target: T1, CYP2E1 (Homo sapiens, UniProt P05181); test: biochemical
CYP2E1 [2] = biological target: T1, CYP2E1; test: Impact of styrene on acetaminophen oxidation by recombinant CYP2E1; settings: 100 µM acetaminophen, styrene 50 to 500 µM
CYP2E1 [3] = biological target: T1, CYP2E1; test: in vitro; settings: recombinant enzyme, pH 7.4
CYP2E1 [4] = biological target: T1, CYP2E1; settings: read-out: Ks; styrene, free enzyme; cited from earlier work
Human CYP2E1 = settings: cited from earlier work

T1 sequence (P05181 whole entry): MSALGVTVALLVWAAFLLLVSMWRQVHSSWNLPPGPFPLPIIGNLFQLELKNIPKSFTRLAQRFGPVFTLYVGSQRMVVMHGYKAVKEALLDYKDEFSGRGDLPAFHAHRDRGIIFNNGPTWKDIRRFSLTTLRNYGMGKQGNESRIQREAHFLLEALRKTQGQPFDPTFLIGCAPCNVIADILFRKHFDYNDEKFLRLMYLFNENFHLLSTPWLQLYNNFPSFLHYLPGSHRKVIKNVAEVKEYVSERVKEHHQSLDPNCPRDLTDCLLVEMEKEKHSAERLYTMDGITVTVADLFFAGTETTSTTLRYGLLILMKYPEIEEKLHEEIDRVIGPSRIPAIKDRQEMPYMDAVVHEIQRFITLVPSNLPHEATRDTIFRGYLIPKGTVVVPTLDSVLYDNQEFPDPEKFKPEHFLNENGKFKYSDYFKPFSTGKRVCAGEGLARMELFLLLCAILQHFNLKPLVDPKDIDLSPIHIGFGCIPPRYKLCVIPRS

Row | IC50 (CYP2E1 [1]) | activity (CYP2E1 [3]) | SMILES | remaining acetaminophen oxidation activity versus prediction (CYP2E1 [2]) | Kd (CYP2E1 [4]) | Km (Human CYP2E1; CYP2E1 expressed in HepG2 cells or purified CYP2E1 in a reconstituted system) | Km (Human CYP2E1; reconstituted CYP2E1 system)
1 | 22 µM | 19% | C=Cc1ccccc1 [styrene] | greater than would be predicted by simple competition | 375 µM | – | –
2 | – | – | CC(=O)Nc1ccc(O)cc1 [acetaminophen] | – | – | ~600 µM | 1300 µM
